This note sets out measurements from patent US11440898B2, “Isoquinoline compounds, methods for their preparation, and therapeutic uses thereof in conditions associated with the alteration of the activity of beta galactosidase” (Minoryx Therapeutics S.L., priority 2016, dated 2022).

Each structure is given as a SMILES string.

The assay concerns the target T1, mutated beta-galactosidase (p.R60H canine GLB1) in GM11473 fibroblasts (Canis lupus familiaris, UniProt Q9TRY9, R60H).
T1 construct: host or cells: GM11473 canine GM1 gangliosidosis fibroblasts
T1 sequence (Q9TRY9 30-668 R60H): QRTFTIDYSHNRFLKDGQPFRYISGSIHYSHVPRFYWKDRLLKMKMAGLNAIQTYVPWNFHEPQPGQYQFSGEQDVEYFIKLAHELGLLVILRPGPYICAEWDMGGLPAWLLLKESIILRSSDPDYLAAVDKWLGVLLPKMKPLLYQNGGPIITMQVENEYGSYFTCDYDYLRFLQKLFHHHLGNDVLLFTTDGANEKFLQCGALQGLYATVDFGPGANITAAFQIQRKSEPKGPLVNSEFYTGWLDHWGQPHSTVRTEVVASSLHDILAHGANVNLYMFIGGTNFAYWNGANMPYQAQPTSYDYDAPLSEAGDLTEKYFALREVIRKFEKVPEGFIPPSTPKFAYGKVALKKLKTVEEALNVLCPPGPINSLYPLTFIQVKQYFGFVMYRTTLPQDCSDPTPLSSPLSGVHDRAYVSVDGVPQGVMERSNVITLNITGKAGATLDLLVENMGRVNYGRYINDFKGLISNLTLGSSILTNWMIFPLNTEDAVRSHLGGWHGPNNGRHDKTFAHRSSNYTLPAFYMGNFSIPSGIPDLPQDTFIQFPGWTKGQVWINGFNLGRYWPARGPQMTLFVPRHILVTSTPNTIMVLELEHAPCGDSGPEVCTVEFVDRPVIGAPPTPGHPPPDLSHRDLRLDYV
Put plainly: Enhancement of β-galactosidase activity measured in GM1 fibroblasts (GM11473), 4-MU-β-D-galactopyranoside substrate. In kind it is cell-based. Also noted: key: Increase in comparison with non-treated of >2.5 fold is shown as A; Increase in comparison with non-treated of >1.7-2.5 fold is shown as B; Increase in comparison with non-treated of 1.2-1.7 fold is shown as C; D means that no increase compared with non-treated cells was detected in this method. The conditions noted are these: increase in β-galactosidase enzyme activity vs non-treated cells, concentrations between 6 and 50 μM, 4 days incubation. The method, then: The capacity of the Compounds of the Disclosure to enhance mutated beta-galactosidase activity levels in GM1 fibroblasts was assayed as follows.
Fibroblasts homozygous for a GM1 gangliosidosis missense mutation (GM11473) (canine fibroblasts homozygous for the GM1 gangliosidosis missense mutation p.R60H equivalent to human p.R59H mutation) were purchased from Coriell Institute for Medical Research (Camden, N.J., USA).
Fibroblasts were seeded at 4×10^4 cells per well in 12-well cell culture plates in Dulbecco's Modified Eagle's Media (DMEM) supplemented with 10% of fetal bovine serum (FBS), 1% penicillin/streptomycin (P/S) (Thermo Fisher Scientific, Waltham, Mass., USA) and incubated at 37° C., 5% CO2 overnight for cell attachment. Subsequently, cells were incubated in the absence or presence of the compounds at the desired concentration for 4 days. After incubation, cells were washed twice with phosphate-buffered saline (“PBS”) and detached using Trypsin-EDTA solution (Sigma Aldrich, St. Louis, Mo., USA) to prepare cell pellets. The pellets were stored at −80° C. until activity assays were performed.
β-Galactosidase activity in cell lysates was measured by using 4-Methylumbelliferyl-β-D-galactopyranoside substrate (Sigma Aldrich, St. Louis, Mo., USA). Briefly, lysates were resuspended in 200 μL of 0.9% NaCl containing 0.01% triton X-100 lysis buffer to promote membrane disruption. The cell suspension was sonicated and centrifuged to remove insoluble materials. Then, lysates were mixed with 4-MU-β-D-galactopyranoside in 100 mM citrate buffer (pH=4) and 100 mM NaCl for 60 min at 37° C. The reaction was terminated by adding 100 mM glycine-NaOH buffer (pH=10.7). The liberated 4-MU was measured on a GloMax Discover plate reader (Promega, Madison, Wis., USA) with excitation at 340 nm and emission at 460 nm. Protein quantification was determined using Pierce BCA Protein Assay Kit (Thermo Fisher Scientific, Waltham, Mass., USA). Measurements were interpolated in a 4-MU standard curve and normalized by protein quantity. Enzyme activities were expressed in treated cells as X-fold increase in comparison with non-treated cells (X=1 represents no enhancement).
The capacity of the Compounds of the Disclosure to produce an increase in β-galactosidase enzyme activity in canine GM1 fibroblasts bearing p.R60H canine GLB1 mutation at concentrations between 6 and 50 μM is denoted as follows: • Increase in comparison with non-treated of >2.5 fold is shown as A. • Increase in comparison with non-treated of >1.7-2.5 fold is shown as B. • Increase in comparison with non-treated of 1.2-1.7 fold is shown as C. • D means that no increase compared with non-treated cells was detected in this method. • ND means “not determined.”
With `O=S(=O)(NCC(c1ccccn1)N1CCOCC1)c1ccc(Nc2nccc3ccc(Cl)cc23)cc1` (stereo not shown) [Example 72, 4-((7-Chloroisoquinolin-1-yl)amino)-N-(2-morpholino-2-(pyridin-2-yl)ethyl)benzenesulfonamide], the “Activity in GM11473 fibroblasts” value is “D”.
Then `O=S(=O)(NCc1ccc2c(c1)OCCO2)c1ccc(Nc2nccc3ccc(Cl)cc23)cc1` [Example 75, 4-((7-chloroisoquinolin-1-yl)amino)-N-((2,3-dihydrobenzo[b][1,4]dioxin-6-yl)methyl)benzenesulfonamide], with “B (Increase in comparison with non-treated of >1.7-2.5 fold is shown as B)”.
Consider `O=C(NC1CCc2ccccc2C1)c1ccc(Nc2nccc3ccc(Cl)cc23)cn1` (stereo not shown) [Example 34, 5-((7-Chloroisoquinolin-1-yl)amino)-N-(1,2,3,4-tetrahydronaphthalen-2-yl)picolinamide], for which the “Activity in GM11473 fibroblasts” value is reported as “A (Increase in comparison with non-treated of >2.5 fold is shown as A)”.
For `O=C(NCc1ccccc1)c1ccc(Nc2nccc3ccc(Cl)cc23)cn1` [Example 29, N-benzyl-5-((7-chloroisoquinolin-1-yl)amino)picolinamide] the value was “A (Increase in comparison with non-treated of >2.5 fold is shown as A)”.
For `COc1cccc(CNC(=O)c2cc(Nc3nccc4ccc(Cl)cc34)ccn2)c1` [Example 11, 4-((7-Chloroisoquinolin-1-yl)amino)-N-(3-methoxybenzyl)picolinamide] the value was “B (Increase in comparison with non-treated of >1.7-2.5 fold is shown as B)”.
Take `Cn1nnc2cc(CNS(=O)(=O)c3cccc(Nc4nccc5ccc(Cl)cc45)c3)ccc21` [Example 71, 3-((7-Chloroisoquinolin-1-yl)amino)-N-((1-methyl-1H-benzo[d][1,2,3]triazol-5-yl)methyl)benzenesulfonamide]: the “Activity in GM11473 fibroblasts” value is “C (Increase in comparison with non-treated of 1.2-1.7 fold is shown as C)”.
For `O=S(=O)(NCc1ccc2c(c1)OCCO2)c1cccc(Nc2nccc3ccc(Cl)cc23)c1` [Example 69, 3-((7-Chloroisoquinolin-1-yl)amino)-N-((2,3-dihydrobenzo[b][1,4]dioxin-6-yl)methyl)benzenesulfonamide] the value was “D”; for `O=C(NCc1ccc2c(c1)OCCO2)c1cccc(Nc2nccc3ccc(Cl)cc23)c1` [Example 3, 3-((7-Chloroisoquinolin-1-yl)amino)-N-((2,3-dihydrobenzo[b][1,4]dioxin-6-yl)methyl)benzamide], “C (Increase in comparison with non-treated of 1.2-1.7 fold is shown as C)”; for `O=S(=O)(NCc1ccc2nsnc2c1)c1ccc(Nc2nccc3ccc(Cl)cc23)cc1` [Example 76, N-(benzo[c][1,2,5]thiadiazol-5-ylmethyl)-4-((7-chloroisoquinolin-1-yl)amino)benzenesulfonamide], “C (Increase in comparison with non-treated of 1.2-1.7 fold is shown as C)”.
Then `O=C(NCc1ccc2c(c1)OCCO2)c1ccc(Nc2nccc3ccc(Cl)cc23)cn1` [Example 28, 5-((7-Chloroisoquinolin-1-yl)amino)-N-((2,3-dihydrobenzo[b][1,4]dioxin-6-yl)methyl)picolinamide], with “B (Increase in comparison with non-treated of >1.7-2.5 fold is shown as B)”; and `O=C(NCc1ccc2c(c1)OCO2)c1ccc(Nc2nccc3ccc(Cl)cc23)cn1` [Example 37, N-(benzo[d][1,3]dioxol-5-ylmethyl)-5-((7-chloroisoquinolin-1-yl)amino)picolinamide], with “D”.
Then `O=C(NCC(c1cccnc1)N1CCCC1)c1ccc(Nc2nccc3ccc(Cl)cc23)nc1` (stereo not shown) [Example 53, 6-((7-Chloroisoquinolin-1-yl)amino)-N-(2-(pyridin-3-yl)-2-(pyrrolidin-1-yl)ethyl)nicotinamide], with “C (Increase in comparison with non-treated of 1.2-1.7 fold is shown as C)”; and `O=C(NCc1ccc2c(c1)CCCO2)c1ccc(Nc2nccc3ccc(Cl)cc23)nc1` [Example 63, 6-((7-Chloroisoquinolin-1-yl)amino)-N-(chroman-6-ylmethyl)nicotinamide], with “C (Increase in comparison with non-treated of 1.2-1.7 fold is shown as C)”.
For the compound `O=C(NC1CCc2ccccc2C1)c1ccc(Nc2nccc3ccc(Cl)cc23)nc1` (stereo not shown) [Example 60, 6-((7-Chloroisoquinolin-1-yl)amino)-N-(1,2,3,4-tetrahydronaphthalen-2-yl)nicotinamide], the “Activity in GM11473 fibroblasts” value is “C (Increase in comparison with non-treated of 1.2-1.7 fold is shown as C)”.
On to `O=C(NCc1ccc2c(c1)OCO2)c1ccc(Nc2nccc3ccc(Cl)cc23)nc1` [Example 62, N-(benzo[d][1,3]dioxol-5-ylmethyl)-6-((7-chloroisoquinolin-1-yl)amino)nicotinamide], for which the “Activity in GM11473 fibroblasts” value is on record as “D”.
As for `COc1ccc2c(c1)CCC(NC(=O)c1ccc(Nc3nccc4ccc(OC)cc34)cn1)C2` (stereo not shown) [Example 46, N-(6-methoxy-1,2,3,4-tetrahydronaphthalen-2-yl)-5-((7-methoxyisoquinolin-1-yl)amino)picolinamide], the “Activity in GM11473 fibroblasts” value is “C (Increase in comparison with non-treated of 1.2-1.7 fold is shown as C)”.
For `COc1ccc(CNC(=O)c2ccc(Nc3nccc4ccc(Cl)cc34)cn2)cc1` [Example 30, 5-((7-Chloroisoquinolin-1-yl)amino)-N-(4-methoxybenzyl)picolinamide] the value was “B (Increase in comparison with non-treated of >1.7-2.5 fold is shown as B)”; for `O=C(NCC1CCc2ccccc2C1)c1ccc(Nc2nccc3ccc(Cl)cc23)cn1` (stereo not shown) [Example 41, 5-((7-Chloroisoquinolin-1-yl)amino)-N-((1,2,3,4-tetrahydronaphthalen-2-yl)methyl)picolinamide], “B (Increase in comparison with non-treated of >1.7-2.5 fold is shown as B)”; for `O=C(NCc1ccc2c(c1)CCO2)c1cc(Nc2nccc3ccc(Cl)cc23)ccn1` [Example 16, 4-((7-Chloroisoquinolin-1-yl)amino)-N-((2,3-dihydrobenzofuran-5-yl)methyl)picolinamide], “C (Increase in comparison with non-treated of 1.2-1.7 fold is shown as C)”.
For `COc1cccc(CNC(=O)c2ccc(Nc3nccc4ccc(Cl)cc34)nc2)c1` [Example 57, 6-((7-Chloroisoquinolin-1-yl)amino)-N-(3-methoxybenzyl)nicotinamide] the value was “C (Increase in comparison with non-treated of 1.2-1.7 fold is shown as C)”; for `N#Cc1ccc2ccnc(Nc3ccc(C(=O)NCc4ccc5nsnc5c4)nc3)c2c1` [Example 50, N-(benzo[c][1,2,5]thiadiazol-5-ylmethyl)-5-((7-cyanoisoquinolin-1-yl)amino)picolinamide], “C (Increase in comparison with non-treated of 1.2-1.7 fold is shown as C)”; for `O=C(NCc1ccc2c(c1)OCCCO2)c1cc(Nc2nccc3ccc(Cl)cc23)ccn1` [Example 15, 4-((7-Chloroisoquinolin-1-yl)amino)-N-((3,4-dihydro-2H-benzo[b][1,4]dioxepin-7-yl)methyl)picolinamide], “D”.
